In PubChem BioAssay (NCI):
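All cell lines were grown in 96-well plates and treated with compound for 48 hours. The concentration for full growth arrest is given as TGI.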

Experiments:
Experiment in all cases: NCI tumour cell line growth inhibition, 48 h
786-0 renal = tested on: 786-0 renal
A498 renal = tested on: A498 renal
A549 NSCLC = tested on: A549 NSCLC
ACHN renal = tested on: ACHN renal
BT-549 breast = tested on: BT-549 breast
CAKI-1 renal = tested on: CAKI-1 renal
CCRF-CEM leukemia = tested on: CCRF-CEM leukemia
COLO 205 colon = tested on: COLO 205 colon
DU-145 prostate = tested on: DU-145 prostate
EKVX NSCLC = tested on: EKVX NSCLC
HCC-2998 colon = tested on: HCC-2998 colon
HCT-116 colon = tested on: HCT-116 colon
HCT-15 colon = tested on: HCT-15 colon
HL-60(TB) leukemia = tested on: HL-60(TB) leukemia
HOP-62 NSCLC = tested on: HOP-62 NSCLC
HOP-92 NSCLC = tested on: HOP-92 NSCLC
HS 578T breast = tested on: HS 578T breast
HT29 colon = tested on: HT29 colon
IGROV1 ovarian = tested on: IGROV1 ovarian
K-562 leukemia = tested on: K-562 leukemia
KM12 colon = tested on: KM12 colon
LOX IMVI melanoma = tested on: LOX IMVI melanoma
M14 melanoma = tested on: M14 melanoma
MALME-3M melanoma = tested on: MALME-3M melanoma
MCF7 breast = tested on: MCF7 breast
MDA-MB-231 breast = tested on: MDA-MB-231 breast
MDA-MB-435 = tested on: MDA-MB-435
MDA-N = tested on: MDA-N
MOLT-4 leukemia = tested on: MOLT-4 leukemia
NCI-H226 lung = tested on: NCI-H226 lung
NCI-H23 lung = tested on: NCI-H23 lung
NCI-H460 lung = tested on: NCI-H460 lung
NCI-H522 lung = tested on: NCI-H522 lung
NCI/ADR-RES ovarian = tested on: NCI/ADR-RES ovarian
OVCAR-3 ovarian = tested on: OVCAR-3 ovarian
OVCAR-4 ovarian = tested on: OVCAR-4 ovarian
OVCAR-5 ovarian = tested on: OVCAR-5 ovarian
OVCAR-8 ovarian = tested on: OVCAR-8 ovarian
PC-3 prostate = tested on: PC-3 prostate
RPMI-8226 leukemia = tested on: RPMI-8226 leukemia
RXF 393 renal = tested on: RXF 393 renal
SF-268 CNS = tested on: SF-268 CNS
SF-295 CNS = tested on: SF-295 CNS
SF-539 CNS = tested on: SF-539 CNS
SK-MEL-2 melanoma = tested on: SK-MEL-2 melanoma
SK-MEL-28 melanoma = tested on: SK-MEL-28 melanoma
SK-MEL-5 melanoma = tested on: SK-MEL-5 melanoma
SK-OV-3 ovarian = tested on: SK-OV-3 ovarian
SN12C renal = tested on: SN12C renal
SNB-19 CNS = tested on: SNB-19 CNS
SNB-75 CNS = tested on: SNB-75 CNS
SR leukemia = tested on: SR leukemia
SW-620 colon = tested on: SW-620 colon
T-47D breast = tested on: T-47D breast
TK-10 renal = tested on: TK-10 renal
U251 CNS = tested on: U251 CNS
UACC-257 melanoma = tested on: UACC-257 melanoma
UACC-62 melanoma = tested on: UACC-62 melanoma
UO-31 renal = tested on: UO-31 renal

Structure (SMILES): C/C=C/[C@@H](C(=O)OC)N1C(=O)c2ccccc2[C@H]1O
- TGI (786-0 renal): > 100 µM
- TGI (A498 renal): > 100 µM
- TGI (A549 NSCLC): > 100 µM
- TGI (ACHN renal): > 100 µM
- TGI (BT-549 breast): > 100 µM
- TGI (CAKI-1 renal): > 100 µM
- TGI (CCRF-CEM leukemia): > 100 µM
- TGI (COLO 205 colon): > 100 µM
- TGI (DU-145 prostate): > 100 µM
- TGI (EKVX NSCLC): > 100 µM
- TGI (HCC-2998 colon): > 100 µM
- TGI (HCT-116 colon): > 100 µM
- TGI (HCT-15 colon): > 100 µM
- TGI (HL-60(TB) leukemia): > 100 µM
- TGI (HOP-62 NSCLC): > 100 µM
- TGI (HOP-92 NSCLC): > 100 µM
- TGI (HS 578T breast): > 100 µM
- TGI (HT29 colon): > 100 µM
- TGI (IGROV1 ovarian): > 100 µM
- TGI (K-562 leukemia): > 100 µM
- TGI (KM12 colon): > 100 µM
- TGI (LOX IMVI melanoma): > 100 µM
- TGI (M14 melanoma): > 100 µM
- TGI (MALME-3M melanoma): > 100 µM
- TGI (MCF7 breast): > 100 µM
- TGI (MDA-MB-231 breast): > 100 µM
- TGI (MDA-MB-435): > 100 µM
- TGI (MDA-N): > 100 µM
- TGI (MOLT-4 leukemia): > 100 µM
- TGI (NCI-H226 lung): > 100 µM
- TGI (NCI-H23 lung): > 100 µM
- TGI (NCI-H460 lung): > 100 µM
- TGI (NCI-H522 lung): > 100 µM
- TGI (NCI/ADR-RES ovarian): > 100 µM
- TGI (OVCAR-3 ovarian): > 100 µM
- TGI (OVCAR-4 ovarian): > 100 µM
- TGI (OVCAR-5 ovarian): > 100 µM
- TGI (OVCAR-8 ovarian): > 100 µM
- TGI (PC-3 prostate): > 100 µM
- TGI (RPMI-8226 leukemia): > 100 µM
- TGI (RXF 393 renal): > 100 µM
- TGI (SF-268 CNS): > 100 µM
- TGI (SF-295 CNS): > 100 µM
- TGI (SF-539 CNS): > 100 µM
- TGI (SK-MEL-2 melanoma): > 100 µM
- TGI (SK-MEL-28 melanoma): > 100 µM
- TGI (SK-MEL-5 melanoma): > 100 µM
- TGI (SK-OV-3 ovarian): > 100 µM
- TGI (SN12C renal): > 100 µM
- TGI (SNB-19 CNS): > 100 µM
- TGI (SNB-75 CNS): > 100 µM
- TGI (SR leukemia): > 100 µM
- TGI (SW-620 colon): > 100 µM
- TGI (T-47D breast): > 100 µM
- TGI (TK-10 renal): > 100 µM
- TGI (U251 CNS): > 100 µM
- TGI (UACC-257 melanoma): > 100 µM
- TGI (UACC-62 melanoma): > 100 µM
- TGI (UO-31 renal): > 100 µM

Structure (SMILES): S=C1N=C2C(=N1)n1c3c(c4ccccc41)CCCC23 (configuration not stated)
- TGI (786-0 renal): 32.9 µM
- TGI (A498 renal): > 100 µM
- TGI (A549 NSCLC): > 100 µM
- TGI (ACHN renal): > 100 µM
- TGI (BT-549 breast): > 100 µM
- TGI (CAKI-1 renal): > 100 µM
- TGI (CCRF-CEM leukemia): > 100 µM
- TGI (COLO 205 colon): > 100 µM
- TGI (DU-145 prostate): > 100 µM
- TGI (EKVX NSCLC): > 100 µM
- TGI (HCC-2998 colon): > 100 µM
- TGI (HCT-116 colon): > 100 µM
- TGI (HCT-15 colon): > 100 µM
- TGI (HL-60(TB) leukemia): > 100 µM
- TGI (HOP-62 NSCLC): > 100 µM
- TGI (HOP-92 NSCLC): > 100 µM
- TGI (HS 578T breast): > 100 µM
- TGI (HT29 colon): > 100 µM
- TGI (IGROV1 ovarian): > 100 µM
- TGI (K-562 leukemia): > 100 µM
- TGI (KM12 colon): > 100 µM
- TGI (LOX IMVI melanoma): 35.6 µM
- TGI (M14 melanoma): > 100 µM
- TGI (MALME-3M melanoma): > 100 µM
- TGI (MCF7 breast): 63.1 µM
- TGI (MDA-MB-231 breast): > 100 µM
- TGI (MDA-MB-435): > 100 µM
- TGI (MDA-N): > 100 µM
- TGI (MOLT-4 leukemia): > 100 µM
- TGI (NCI-H226 lung): > 100 µM
- TGI (NCI-H23 lung): > 100 µM
- TGI (NCI-H460 lung): > 100 µM
- TGI (NCI-H522 lung): 63.3 µM
- TGI (NCI/ADR-RES ovarian): > 100 µM
- TGI (OVCAR-3 ovarian): > 100 µM
- TGI (OVCAR-4 ovarian): > 100 µM
- TGI (OVCAR-5 ovarian): > 100 µM
- TGI (OVCAR-8 ovarian): > 100 µM
- TGI (PC-3 prostate): > 100 µM
- TGI (RPMI-8226 leukemia): 97.5 µM
- TGI (RXF 393 renal): > 100 µM
- TGI (SF-268 CNS): > 100 µM
- TGI (SF-295 CNS): > 100 µM
- TGI (SF-539 CNS): > 100 µM
- TGI (SK-MEL-2 melanoma): > 100 µM
- TGI (SK-MEL-28 melanoma): > 100 µM
- TGI (SK-MEL-5 melanoma): > 100 µM
- TGI (SK-OV-3 ovarian): > 100 µM
- TGI (SN12C renal): 72.6 µM
- TGI (SNB-19 CNS): > 100 µM
- TGI (SNB-75 CNS): > 100 µM
- TGI (SR leukemia): > 100 µM
- TGI (SW-620 colon): > 100 µM
- TGI (T-47D breast): > 100 µM
- TGI (TK-10 renal): > 100 µM
- TGI (U251 CNS): > 100 µM
- TGI (UACC-257 melanoma): > 100 µM
- TGI (UACC-62 melanoma): > 100 µM
- TGI (UO-31 renal): > 100 µM

Structure (SMILES): ClC1=C(Cl)C(Cl)(Cl)SS1
- TGI (786-0 renal): > 6.03 µM
- TGI (A498 renal): > 10 µM
- TGI (A549 NSCLC): > 10 µM
- TGI (ACHN renal): > 10 µM
- TGI (BT-549 breast): > 10 µM
- TGI (CAKI-1 renal): 6.76 µM
- TGI (CCRF-CEM leukemia): > 8 µM
- TGI (COLO 205 colon): 3.73 µM
- TGI (DU-145 prostate): > 10 µM
- TGI (EKVX NSCLC): > 10 µM
- TGI (HCC-2998 colon): > 10 µM
- TGI (HCT-116 colon): > 6.72 µM
- TGI (HCT-15 colon): > 10 µM
- TGI (HL-60(TB) leukemia): > 7.32 µM
- TGI (HOP-62 NSCLC): > 10 µM
- TGI (HOP-92 NSCLC): > 8.63 µM
- TGI (HS 578T breast): > 10 µM
- TGI (HT29 colon): > 10 µM
- TGI (IGROV1 ovarian): > 10 µM
- TGI (K-562 leukemia): > 7.82 µM
- TGI (KM12 colon): > 10 µM
- TGI (LOX IMVI melanoma): > 10 µM
- TGI (M14 melanoma): > 10 µM
- TGI (MALME-3M melanoma): > 6.61 µM
- TGI (MCF7 breast): > 10 µM
- TGI (MDA-MB-231 breast): > 10 µM
- TGI (MDA-MB-435): > 10 µM
- TGI (MDA-N): > 10 µM
- TGI (MOLT-4 leukemia): 3.61 µM
- TGI (NCI-H226 lung): > 10 µM
- TGI (NCI-H23 lung): > 10 µM
- TGI (NCI-H460 lung): > 10 µM
- TGI (NCI-H522 lung): > 6.85 µM
- TGI (NCI/ADR-RES ovarian): > 10 µM
- TGI (OVCAR-3 ovarian): > 9.5 µM
- TGI (OVCAR-4 ovarian): 9.81 µM
- TGI (OVCAR-5 ovarian): > 10 µM
- TGI (OVCAR-8 ovarian): > 10 µM
- TGI (PC-3 prostate): > 10 µM
- TGI (RPMI-8226 leukemia): 6.73 µM
- TGI (RXF 393 renal): > 10 µM
- TGI (SF-268 CNS): > 10 µM
- TGI (SF-295 CNS): > 10 µM
- TGI (SF-539 CNS): > 10 µM
- TGI (SK-MEL-2 melanoma): > 10 µM
- TGI (SK-MEL-28 melanoma): > 10 µM
- TGI (SK-MEL-5 melanoma): > 10 µM
- TGI (SK-OV-3 ovarian): > 10 µM
- TGI (SN12C renal): > 10 µM
- TGI (SNB-19 CNS): > 10 µM
- TGI (SNB-75 CNS): > 10 µM
- TGI (SR leukemia): 5.35 µM
- TGI (SW-620 colon): 5.82 µM
- TGI (T-47D breast): > 10 µM
- TGI (TK-10 renal): > 10 µM
- TGI (U251 CNS): > 10 µM
- TGI (UACC-257 melanoma): > 7.95 µM
- TGI (UACC-62 melanoma): > 10 µM
- TGI (UO-31 renal): > 6.06 µM
